Test results reported in patent US20240208939A1, “TREATMENT OF AUTOIMMUNE AND INFLAMMATORY DISORDERS WITH INHIBITORS OF BET FAMILY BDII BROMODOMAIN” (POSEIDON INNOVATION 1, INC., priority 2022, published 2024).
pIC50: −log10 of the molar value.

Assays:
BRD4 BD2 = target: T1, BRD4 BD2 (Homo sapiens, UniProt O60885); experiment: Target Engagement Intracellular BET BRD Assay (NanoBRET); type: cell-based; conditions: read-out: BRD4 BD2 TE IC50
T1 construct: BD2 TE; expressed in transfected cells
Protocol: 3× Complete Substrate plus Inhibitor Solution in Assay Medium (Opti-MEM® I Reduced Serum Medium, no phenol red, and no serum) was prepared just before measuring BRET. This solution consisted of a 1:166 dilution of NanoBRET™ Nano-Glo® Substrate plus a 1:500 dilution of Extracellular NanoLuc® Inhibitor in Assay Medium. For a 96-well plate, 30 μl of NanoBRET™ Nano-Glo® Substrate, 10 μl of Extracellular NanoLuc® Inhibitor and 4,960 μl of Assay Medium were mixed to produce 5 ml of 3× Complete Substrate plus Inhibitor Solution, followed with gently mixing by inversion 5-10 times in a conical tube. (The final concentration of Extracellular NanoLuc® Inhibitor in the 3× solution was 60 μM, for a working concentration of 20 μM. Use 3× Complete Substrate plus Inhibitor Solution within 2 hours. Discard any remaining solution).
50 μl of 3× Complete Substrate plus Inhibitor Solution were added to each well of the 96-well plate, followed by incubation for 2-3 minutes at room temperature. Donor emission wavelength (e.g., 450 nm) and acceptor emission wavelength (e.g., 610 nm) were measured by using the GloMax® Discover System or other NanoBRET™ Assay-compatible luminometer (it is recommended measuring BRET within 10 minutes after adding NanoBRET™ Nano-Glo™ Substrate plus Extracellular NanoLuc® Inhibitor Solution. However, BRET can be measured for up to 2 hours, but there will be some loss of luminescence signal).
To generate raw BRET ratio values, the acceptor emission value (e.g., 610 nm) was divided by the donor emission value (e.g., 450 nm) for each sample [to correct for background, the BRET ratio was substracted in the absence of tracer (average of no-tracer control samples) from the BRET ratio of each sample]. Raw BRET units were converted to milliBRET units (mBU) by multiplying each raw BRET value by 1,000. NanoBRET™ ratio equation, including optional background correction is shown below:
BRET Ratio=[(Acceptorsample÷Donorsample)−(Acceptorno-tracer control÷Donorno-tracer control)]×1,000.

MCP-1 = experiment: PBMC MCP-1 HTRF Assay; type: cell-based; conditions: LPS 200 ng/mL, 24 hours
Protocol: The cryopreserved PBMC cells were thawed in a 37° C. water bath immediately after taking out from liquid nitrogen storage. A sterile pipette was used to transfer the content to sterile […] centrifuge tube containing […] of complete growth medium (Gibico 1640) and centrifuge at 300×g for 10 min. Supernatant was discarded, and cell pellet was resuspended in 10 mL of complete growth media in a sterile 15 mL tube. The cells were rested for 1 h at 37° C. (1×10^6 cells/mL). The cells were spinned down at 300×g for 10 minutes after 1 h. Supernatant was discard, and cell pellet was resuspended in complete growth medium, the cells number and viability were measured by AO/PI staining. In a 384-well white plate, PBMCs at 25 k cells/well (15 μl per well) were seeded with Gibico 1640 medium. The compound stock was serial diluted into […] by 3-fold dilution. 20 nL DMSO, 20 nL test compounds DMSO stock (serial diluted) were transferred in assay plate by using ECHO550, incubate for 30 min at 37° C., 5% CO2. LPS was diluted by Gibico 1640 medium.add 5 μl per well. The final concentration (200 ng/mL) was incubated for 24 hours at 37° C. with 5% CO2.
For MCP-1 HTRF, 2.5 μl/well MCP-1 donor antibody and 2.5 μl/well MCP-1 acceptor antibody were added into 384 well plate, following by centrifuging at 190×g for 1 min and incubating at room temperature for 2 h. The plate was read on the Envision.

pIC50 (BRD4 BD2) | pIC50 (MCP-1) | Compound
9.82 | 8.91 | Cc1cc(-c2ccc(-n3ccn(C)c3=O)c(Cl)c2)c(O)c(-c2cccc(N3CCN(C(C)(C)C)CC3)c2)n1 [Example I-2, 1-(4-(2-(3-(4-(tert-butyl)piperazin-1-yl)phenyl)-3-hydroxy-6-methylpyridin-4-yl)-2-chlorophenyl)-3-methyl-1,3-dihydro-2H-imidazol-2-one]
7.08 | 7.78 | Cn1ccn(-c2ccc(-c3cc(F)nc(-c4cccc(N5CCN(C(C)(C)C)CC5)c4)c3O)cc2Cl)c1=O [Example I-13, 1-(4-(2-(3-(4-(tert-butyl)piperazin-1-yl)phenyl)-6-fluoro-3-hydroxypyridin-4-yl)-2-chlorophenyl)-3-methyl-1,3-dihydro-2H-imidazol-2-one]
9.33 | 9.23 | Cc1cc(-c2ccc(-n3ccn(C)c3=O)c(Cl)c2)c(N)c(-c2cccc(N3CCN(C(C)(C)C)CC3)c2)n1 [Example I-5, 1-(4-(3-amino-2-(3-(4-(tert-butyl)piperazin-1-yl)phenyl)-6-methylpyridin-4-yl)-2-chlorophenyl)-3-methyl-1,3-dihydro-2H-imidazol-2-one]
7.96 | 8.75 | Cc1cc(-c2ccc(-n3ccn(C)c3=O)c(Cl)c2)c(O)c(-c2ccc(F)c(N3CCN(C(C)(C)C)CC3)c2)n1 [Example I-7, 1-(4-(2-(3-(4-(tert-butyl)piperazin-1-yl)-4-fluorophenyl)-3-hydroxy-6-methylpyridin-4-yl)-2-chlorophenyl)-3-methyl-1,3-dihydro-2H-imidazol-2-one]
8.37 | 8.33 | Cc1cc(-c2ccc(-n3ccn(C)c3=O)c(Cl)c2)c(O)c(-c2cc(F)cc(N3CCN(C(C)(C)C)CC3)c2)n1 [Example I-12, 1-(4-(2-(3-(4-(tert-butyl)piperazin-1-yl)-5-fluorophenyl)-3-hydroxy-6-methylpyridin-4-yl)-2-chlorophenyl)-3-methyl-1,3-dihydro-2H-imidazol-2-one]
7.99 | 8.76 | [2H]C([2H])([2H])n1ccn(-c2ccc(-c3cc(C)nc(-c4cccc(N5CCN(C(C)(C)C)CC5)c4)c3O)cc2Cl)c1=O [Example I-4, 1-(4-(2-(3-(4-(tert-butyl)piperazin-1-yl)phenyl)-3-hydroxy-6-methylpyridin-4-yl)-2-chlorophenyl)-3-(methyl-d3)-1,3-dihydro-2H-imidazol-2-one]
7.16 | 7.67 | Cn1ccn(-c2ccc(-c3ccnc(-c4cccc(N5CCN(C(C)(C)C)CC5)c4)c3O)cc2Cl)c1=O [Example I-14, 1-(4-(2-(3-(4-(tert-butyl)piperazin-1-yl)phenyl)-3-hydroxypyridin-4-yl)-2-chlorophenyl)-3-methyl-1,3-dihydro-2H-imidazol-2-one]
8.12 | 8.83 | Cc1cc(-c2ccc(-n3ccn(C)c3=O)c(C)c2)c(O)c(-c2cccc(N3CCN(C(C)(C)C)CC3)c2)n1 [Example I-10, 1-(4-(2-(3-(4-(tert-butyl)piperazin-1-yl)phenyl)-3-hydroxy-6-methylpyridin-4-yl)-2-methylphenyl)-3-methyl-1,3-dihydro-2H-imidazol-2-one]

Second part, the compound before the results:

Compound | pIC50 (BRD4 BD2) | pIC50 (MCP-1)
Cc1cc(-c2ccc(-n3ccn(C)c3=O)c(Cl)c2)c(O)c(-c2ccc(Cl)c(N3CCN(C(C)(C)C)CC3)c2)n1 [Example I-11, 1-(4-(2-(3-(4-(tert-butyl)piperazin-1-yl)-4-chlorophenyl)-3-hydroxy-6-methylpyridin-4-yl)-2-chlorophenyl)-3-methyl-1,3-dihydro-2H-imidazol-2-one] | 8.37 | 8.20
Cc1cc(-c2ccc(-n3ccn(C)c3=O)c(Cl)c2)c(O)c(-c2cc(Cl)cc(N3CCN(C(C)(C)C)CC3)c2)n1 [Example I-6, 1-(4-(2-(3-(4-(tert-butyl)piperazin-1-yl)-5-chlorophenyl)-3-hydroxy-6-methylpyridin-4-yl)-2-chlorophenyl)-3-methyl-1,3-dihydro-2H-imidazol-2-one] | 8.04 | 8.65
Cc1cc(-c2ccc(-n3ccn(C)c3=O)c(Cl)c2)c(O)c(-c2cc(N3CCN(C(C)(C)C)CC3)n(C)c(=O)c2)n1 [Example I-9, 6′-(4-(tert-butyl)piperazin-1-yl)-4-(3-chloro-4-(3-methyl-2-oxo-2,3-dihydro-1H-imidazol-1-yl)phenyl)-3-hydroxy-1′,6-dimethyl-[2,4′-bipyridin]-2′(1′H)-one] | 7.06 | 7.18
COc1ncc(-c2cc(F)cc(-c3ccc(-n4ccn(C)c4=O)c(Cl)c3)c2O)cc1N1CCN(C(C)(C)C)CC1 [Example I-15, 1-(3′-(5-(4-(tert-butyl)piperazin-1-yl)-6-methoxypyridin-3-yl)-3-chloro-5′-fluoro-2′-hydroxy-[1,1′-biphenyl]-4-yl)-3-methyl-1,3-dihydro-2H-imidazol-2-one] | 9.82 | 8.96
Cc1cc(-c2ccc(-n3ccn(C)c3=O)c(F)c2)c(O)c(-c2cccc(N3CCN(C(C)(C)C)CC3)c2)n1 [Example I-8, 1-(4-(2-(3-(4-(tert-butyl)piperazin-1-yl)phenyl)-3-hydroxy-6-methylpyridin-4-yl)-2-fluorophenyl)-3-methyl-1,3-dihydro-2H-imidazol-2-one] | 7.89 | 8.27
COc1ncc(-c2nc(C)cc(-c3ccc(-n4ccn(C)c4=O)c(Cl)c3)c2O)cc1N1CCN(C(C)(C)C)CC1 [Example I-3, 1-(4-(5′-(4-(tert-butyl)piperazin-1-yl)-3-hydroxy-6′-methoxy-6-methyl-[2,3′-bipyridin]-4-yl)-2-chlorophenyl)-3-methyl-1,3-dihydro-2H-imidazol-2-one] | 8.35 | 8.36
